In the supplement of paper PMC10307832:

Tests used:
Assay in all cases: relative viability (nuclei count vs DMSO), 5 days (fraction); higher = more cells survive
BAM7 + Palbociclib = compound: CCOC1=CC=CC=C1N=NC2=C(NN(C2=O)C3=NC(=CS3)C4=CC=CC=C4)C [BAM7] + CC(=O)c1c(C)c2cnc(Nc3ccc(N4CCNCC4)cn3)nc2n(C2CCCC2)c1=O [Palbociclib] (partner 0.5 µM)
Summary of the method: (§1)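 Relative viability divides the nuclei count in treated wells by that in vehicle wells. Lung cancer cell lines were seeded in 1536-well plates, dosed by pin tool the next day, and fixed and stained after 5 days in one step with final 0.05% Triton X-100, 1% formaldehyde and 1 ug/ml Hoechst. Dosing was a single drug or a fixed anchor-drug dose plus five library-drug doses (not always all listed) in √10 steps, and values are medians of duplicate plates imaged at 4×.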

BAM7 + Navitoclax = compound: CCOC1=CC=CC=C1N=NC2=C(NN(C2=O)C3=NC(=CS3)C4=CC=CC=C4)C [BAM7] + CC1(C)CCC(c2ccc(Cl)cc2)=C(CN2CCN(c3ccc(C(=O)NS(=O)(=O)c4ccc(N[C@H](CCN5CCOCC5)CSc5ccccc5)c(S(=O)(=O)C(F)(F)F)c4)cc3)CC2)C1 [Navitoclax] (partner 0.5 µM)
Summary of the method: as §1

[1] = compound: CCn1c(-c2nonc2N)nc2c(C#CC(C)(C)O)ncc(OC[C@H]3CCCNC3)c21 + C[C@@H](Oc1cc(-c2cnn(C3CCNCC3)c2)cnc1N)c1c(Cl)ccc(F)c1Cl [Crizotinib] (partner 1 µM)
Summary of the method: as §1

[2] = compound: CCn1c(-c2nonc2N)nc2c(C#CC(C)(C)O)ncc(OC[C@H]3CCCNC3)c21 + C[C@]1(O)C[C@@H](c2nc(-c3ccc4ccc(-c5ccccc5)nc4c3)c3c(N)nccn32)C1 [Linsitinib] (partner 1 µM)
Summary of the method: as §1

| Cell Line | relative viability (BAM7 + Palbociclib; first compound 0.5 µM) | relative viability (BAM7 + Palbociclib; first compound 5 µM) | relative viability (BAM7 + Palbociclib; first compound 15.81 µM) | relative viability (BAM7 + Palbociclib; first compound 50 µM) | relative viability (BAM7 + Navitoclax; first compound 0.5 µM) | relative viability (BAM7 + Navitoclax; first compound 5 µM) | relative viability (BAM7 + Navitoclax; first compound 15.81 µM) | relative viability (BAM7 + Navitoclax; first compound 50 µM) | relative viability ([1]; first compound 0.01 µM) | relative viability ([1]; first compound 0.03162 µM) | relative viability ([1]; first compound 0.1 µM) | relative viability ([1]; first compound 0.3162 µM) | relative viability ([1]; first compound 1 µM) | relative viability ([2]; first compound 0.01 µM) | relative viability ([2]; first compound 0.03162 µM) | relative viability ([2]; first compound 0.1 µM) | relative viability ([2]; first compound 0.3162 µM) | relative viability ([2]; first compound 1 µM) |
| --- | --- | --- | --- | --- | --- | --- | --- | --- | --- | --- | --- | --- | --- | --- | --- | --- | --- | --- |
| NCI-H727 | 0.579 | 0.689 | 0.714 | 0.731 | 0.419 | 0.458 | 0.471 | 0.441 | 0.841 | 0.94 | 0.785 | 0.667 | 0.763 | 0.271 | 0.313 | 0.257 | 0.309 | 0.288 |
| NCI-H838 | 0.24 | 0.243 | 0.222 | 0.218 | 1.2 | 1.19 | 1.14 | 1.12 | 0.805 | 0.969 | 0.826 | 0.835 | 0.841 | 1.03 | 1.05 | 1.02 | 0.991 | 0.975 |
| NCI-H1355 | 0.415 | 0.385 | 0.377 | 0.416 | 0.856 | 0.94 | 0.773 | 0.957 | 1.09 | 0.943 | 1.03 | 1.02 | 0.799 | 0.899 | 0.804 | 0.877 | 0.685 | 0.869 |
| NCI-H1437 | 0.318 | 0.326 | 0.306 | 0.326 | 1.18 | 1.07 | 0.964 | 1.03 | 0.911 | 0.821 | 0.899 | 0.936 | 0.927 | 0.948 | 1.05 | 1.04 | 1.01 | 0.956 |
| NCI-H1651 | 0.528 | 0.52 | 0.512 | 0.508 | 1.01 | 1.01 | 0.943 | 1.09 | 0.857 | 0.829 | 0.877 | 0.853 | 0.893 | 0.926 | 0.941 | 0.919 | 0.871 | 0.958 |
| NCI-H1666 | 0.628 | 0.627 | 0.669 | 0.677 | 0.938 | 1.11 | 0.912 | 0.858 | 1.04 | 1.1 | 0.966 | 0.943 | 0.968 | 0.805 | 0.92 | 0.928 | 0.732 | 0.738 |
| NCI-H1734 | 0.38 | 0.332 | 0.364 | 0.318 | 0.877 | 0.948 | 0.861 | 0.771 | 0.629 | 0.721 | 0.682 | 0.685 | 0.641 | 0.872 | 0.879 | 0.782 | 0.817 | 0.884 |
| NCI-H1755 | 0.462 | 0.466 | 0.439 | 0.436 | 1.04 | 1.04 | 0.886 | 1.01 | 0.877 | 0.866 | 0.84 | 0.892 | 0.849 | 1.04 | 1.02 | 1 | 0.954 | 1.01 |
| NCI-H1792 | 0.642 | 0.687 | 0.624 | 0.66 | 0.621 | 0.691 | 0.783 | 0.61 | 0.961 | 0.948 | 0.95 | 0.891 | 0.78 | 0.523 | 0.567 | 0.464 | 0.491 | 0.461 |
